According to US20220362386A1, “LIQUID COMPOSITIONS COMPRISING A LEVODOPA AMINO ACID CONJUGATE AND USES THEREOF” (NeuroDerm, Ltd., priority 2019, published 2022):
Where a name gives a salt, the structure may show the parent alone. Read-outs that look alike come from different tables or passages of the source. Non-standard residues stand in square brackets, D forms with d. Residues, ends and D or L forms follow the SMILES beside them. Dopa = N[C@@H](Cc1ccc(O)c(O)c1)C(=O)O

Tests used:
[1] = In-vitro metabolism of LDAA compounds using liver microsomes; type: in vitro ADME, human; details: for half-life at 0.1 μM: pH 7.4, 1.0E−07M, 0.1 mg/mL microsomal protein
Outline: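 Compounds at 0.1 μM were incubated at 37° C with pooled mixed-gender human liver microsomes (0.1 mg/mL protein) in phosphate buffer pH 7.4 plus an NADPH-generating system for 0–60 min. Remaining parent was quantified by HPLC-MS/MS versus time zero; t1/2 came from first-order fits, and Clint = 0.693/(t1/2×protein concentration).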

[2] = Protein binding, solid phase extraction (SPE) method; type: in vitro ADME, human; details: human, human plasma, 1.0E−05M, SPE sample preparation
Outline: (§1)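 Human plasma spiked with test compound at 10 μM, diluted 1:1 with 4% aqueous phosphoric acid and mixed 15 min before solid phase extraction. Mixed-mode cation exchange (MCX) sorbent used a 2% formic acid wash and 5% NH4OH/methanol elution. Anion exchange (MAX) sorbent used a 5% NH4OH wash and 2% formic acid/methanol elution.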

[3] = system: human plasma; test: as above; type: in vitro ADME; details: 1.0E−05M; SPE sample preparation
Outline: as §1

[4] = in vitro; details: human
[5] = incubation time 0 minutes, 1.0E−07M
[6] = incubation time 15 minutes, 1.0E−07M
[7] = incubation time 30 minutes, 1.0E−07M
[8] = incubation time 45 minutes, 1.0E−07M
[9] = incubation time 60 minutes, 1.0E−07M

**Q.** For `N[C@@H](Cc1ccc(O)c(O)c1)C(=O)N[C@@H](Cc1ccc(O)cc1)C(=O)O` [LD-Tyr TFA salt, Levodopa Tyrosine TFA Salt] (H-[Dopa]-Tyr-OH), which half-life at 0.1 μM ([1]; both sexes, human, pooled human liver microsomes, read-out: Half-Life (minute) 1st) is on record?
**A.** 112 min

**Q.** What about the half-life at 0.1 μM ([1]; both sexes, human, pooled human liver microsomes, read-out: Half-Life (minute) 2nd) of the same compound?
**A.** 315 min

**Q.** What about the half-life at 0.1 μM ([1]; both sexes, human, pooled human liver microsomes, read-out: Half-Life (minute) Mean) of the same compound?
**A.** > 60 min

**Q.** What about the microsomal CLint at 0.1 μM ([1]; both sexes, human, pooled human liver microsomes, pH 7.4, calculated from the half-life, 1.0E−07M) of the same compound?
**A.** < 116 µL/min/mg

**Q.** What about the “% Compound Remaining 1st” value [1, 5] of the same compound?
**A.** 100%

**Q.** What about the “% Compound Remaining 2nd” value [1, 5] of the same compound?
**A.** 100%

**Q.** What about the “% Compound Remaining Mean” value [1, 5] of the same compound?
**A.** 100%

**Q.** And the “% Compound Remaining 1st” value [1, 6]?
**A.** 90.7%

**Q.** What about the “% Compound Remaining 2nd” value [1, 6] of the same compound?
**A.** {121.6%

**Q.** And the “% Compound Remaining Mean” value [1, 6]?
**A.** 91%

**Q.** What about the “% Compound Remaining 1st” value [1, 7] of the same compound?
**A.** 102.5%

**Q.** And the “% Compound Remaining 2nd” value [1, 7]?
**A.** 110.1%

**Q.** What about the “% Compound Remaining Mean” value [1, 7] of the same compound?
**A.** 106%

**Q.** And the “% Compound Remaining 1st” value [1, 8]?
**A.** 71.4%

**Q.** What about the “% Compound Remaining 2nd” value [1, 8] of the same compound?
**A.** 104.1%

**Q.** What about the “% Compound Remaining Mean” value [1, 8] of the same compound?
**A.** 88%

**Q.** And the “% Compound Remaining 1st” value [1, 9]?
**A.** 70.8%

**Q.** What about the “% Compound Remaining 2nd” value [1, 9] of the same compound?
**A.** 84.5%

**Q.** And the “% Compound Remaining Mean” value [1, 9]?
**A.** 78%

**Q.** What about the recovery at 10 μM ([2]; read-out: % Recovery 1st) of the same compound?
**A.** 64%

**Q.** And the recovery at 10 μM ([2]; read-out: % Recovery 2nd)?
**A.** 72%

**Q.** What about the recovery at 10 μM ([2]; read-out: % Recovery Mean) of the same compound?
**A.** 68%

**Q.** And the “% Protein Bound 1st” value [3]?
**A.** 11%

**Q.** What about the “% Protein Bound 2nd” value [3] of the same compound?
**A.** 32.5%

**Q.** And the “% Protein Bound Mean” value [3]?
**A.** 22%

**Q.** And the recovery at 40 min, 10 μM ([4]; Caco-2, pH 7.4, Percent Recovery 1st)?
**A.** 82%

**Q.** What about the recovery at 40 min, 10 μM ([4]; Caco-2, pH 7.4, Percent Recovery 2nd) of the same compound?
**A.** 97%

**Q.** What about the recovery at 40 min, 10 μM ([4]; Caco-2, pH 7.4, Percent Recovery Mean) of the same compound?
**A.** 89%

**Q.** And the Papp B→A at 40 min, 10 μM ([4]; Caco-2, pH 7.4, Permeability 1st)?
**A.** 0.01 ×10⁻⁶ cm/s

**Q.** What about the Papp B→A at 40 min, 10 μM ([4]; Caco-2, pH 7.4, Permeability 2nd) of the same compound?
**A.** 0.01 ×10⁻⁶ cm/s

**Q.** What about the Papp B→A at 40 min, 10 μM ([4]; Caco-2, pH 7.4, Permeability Mean) of the same compound?
**A.** < 0.01 ×10⁻⁶ cm/s
